Square brackets hold non-standard residues; d marks the D form. Ends that are not written are not given here. Nle = CCCC[C@H](N)C(=O)O; Nva = CCC[C@H](N)C(=O)O
How the values were obtained:
[1] = system: 624.38 melanoma cells; assay: Ex vivo cytotoxicity against human tumor cells after boost with SSX-2 analogs; type: in vivo; conditions: plasmid prime, peptide boost; FIG. 12
Procedure: Eight groups of mice (n=4) were immunized with plasmid expressing SSX-241-49 natural epitope by direct inoculation into the inguinal lymph nodes with 25 ug in 25 ul of PBS/each lymph node at day 0, 3, 14 and 17. This was followed by two additional peptide boosts (similar amount) at day 28 and 31, using a negative control peptide (Melan A 26-35 “EAA”), natural peptide or analogs as shown in FIG. 9.

[2] = system: target cells coated with natural peptide; assay: In vivo cytotoxicity against splenocytes coated with natural SSX-2 41-49 peptide (CFSE); parameters: species or system HHD mice; conditions: spleen and blood; targets coated with 20 μg/ml and 1 μg/ml natural peptide
Procedure: Eight groups of mice (n=4) were immunized with plasmid expressing SSX-241-49 natural epitope, by direct inoculation into the inguinal lymph nodes with 25 μg in 25 μl of PBS/each lymph node at day 0, 3, 14 and 17. This was followed by two additional peptide boosts (similar amount) at day 28 and 31, using a negative control peptide (Melan A 26-35 “EAA”), natural peptide or analogs as shown in FIG. 9.
To evaluate the in vivo response against natural peptide, splenocytes were isolated from littermate control HHD mice and incubated with 20 μg/mL or 1 μg/ml of natural peptide for 2 hours. These cells were then stained with CFSE^hi fluorescence (4.0 μM or […] for 15 minutes) and intravenously co-injected into immunized mice with an equal number of control splenocytes stained with CFSE^lo fluorescence (0.4 μM). Eighteen hours later the specific elimination of target cells was measured by removing spleen and PBMC from challenged animals and measuring CFSE fluorescence by flow cytometry. The relative depletion of the populations corresponding to peptide loaded splenocytes was calculated relative to the control (unloaded) population and expressed as % specific lysis. FIG. 10 (spleen) and 11 (blood) show the in vivo cytotoxicity elicited by the regimens described in FIG. 7.

[3] = system: T2 cells; assay: Ex vivo cytotoxicity against 51Cr-labeled T2 target cells after plasmid prime and peptide boost; type: in vivo, mice; conditions: plasmid prime, peptide boost; splenocytes restimulated ex vivo; FIG. 8
Procedure: Three groups of mice (n=4) were immunized with a plasmid expressing SSX-241-49 natural epitope by direct inoculation into the inguinal lymph nodes with 25 μg in 25 μl of PBS/each lymph node at day 0, 3, 14 and 17. This was followed by two additional peptide boosts (similar amount) at day 28 and 31. One week after the boost, splenocytes were stimulated ex vivo with SSX-241-49 natural peptide and tested against ^51Cr-labeled target cells (T2 cells) at various E:T ratios (FIG. 8). […] This correlated with the binding and stability parameters determined by ex vivo experimentation.

[4] = system: T cell lines against natural epitope SSX-241-49; assay: Cross-reactivity and functional avidity: IFN-gamma production by T cell lines raised against natural SSX-2 41-49; type: cell-based, HHD transgenic mice; conditions: T cells raised to native peptide tested on analogs; footnote * and unit not given;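 also: analogs presented ex vivo by competent APCs to T cells specific for the non-mutated epitope, scored by lowest activating concentration, peak cytokine effect and concentration at that peak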
[5] = biological target: HLA-A*0201 (Homo sapiens, UniProt P04439, D140Y/D185E/D98H/E176V/E277Q/G131W/G231S/I119V/I121R/I166T/I218V/L300P/L318F/N151K/N90K/P208A/P217A/Q86G/Q94H/R138H/R169H/T345S); assay: iTopia affinity assay (ED50); type: binding; conditions: PRAME425-433 analogs; affinity lower than native
Excerpt: Avidin-coated microtiter plates containing class I monomer loaded with a so-called placeholder peptide were used to evaluate peptide binding, affinity and off-rate. The monomer-coated plates were supplied as part of the iTopia Epitope Discovery System Kit (Beckman Coulter, Inc., San Diego, Calif., USA). Assay buffers, anti-MHC-FITC mAb and beta2-microglobulin and control peptides were also supplied with the kits.
Plates were read on the fluorometer. Sigmoidal dose response curves were generated using Prism software.

[6] = system: native PSMA288-297 peptide; assay: Cross-reactive immunogenicity of PSMA analogs, IFN-gamma ELISPOT; type: in vivo, HHD transgenic mice; conditions: peptide plus pI:C intranodal; FIG. 22
Procedure: Groups of HHD transgenic mice (n=8) were immunized with peptide (natural epitope PSMA288-297, or analogs bearing substitutions at primary or secondary anchor residues) by direct inoculation into the inguinal lymph nodes, with 25 μg in 25 μl of PBS+12.5 μg of pI:C to each lymph node at day 0, 3, 14 and 17.
Mice were sacrificed at 10 days after the last boost, and splenocytes prepared and assessed for IFN-γ production by ELISPOT analysis. […] At 48 hours after incubation, the assay was developed and the frequency of cytokine-producing T cells that recognized native PSMA288-297 peptide was automatically counted. The data is represented in FIG. 22 as the number of spot forming colonies/well (mean of triplicates±SD). […] To the extent that the poor immunogenicity of the native epitope reflects tolerance, the improved activity of these analogs represents tolerance breaking.

[7] = system: PSMA288-297 peptide; assay: Plasmid prime, peptide boost, IFN-gamma ELISPOT (PSMA288-297); type: in vivo, HHD transgenic mice; conditions: versus natural peptide boost, FIG. 23
Procedure: Two groups of HHD transgenic mice (n=8) were immunized with plasmid expressing PSMA288-297 by direct inoculation into the inguinal lymph nodes with 25 μg in […] of PBS to each lymph node at day 0, 3, 14 and 17. This was followed by two peptide boosts (25 μg) at day 28 and 31 with either the natural peptide or the I297V analog.
Mice were sacrificed at 10 days after the last boost, and splenocytes prepared and assessed for IFN-γ production by ELISPOT analysis. […] At 48 hours after incubation, the assay was developed and the frequency of cytokine-producing T cells that recognized the PSMA288-297 peptide was automatically counted. The data is represented in FIG. 23 as frequency of specific T cells normalized to 0.5 million responder cells (mean of triplicates+SD).

[8] = system: LnCap cells; assay: Ex vivo cytotoxicity against PSMA+ A2+ human tumor cells; type: in vivo; conditions: splenocytes restimulated ex vivo with native PSMA288-297
Procedure: HHD transgenic mice (n=4) were immunized with PSMA288-297 peptide (25 μg in 25 μl of PBS, plus 12.5 μg of pI:C to each lymph node) at day 0, 3, 14 and 17. One week after the boost, splenocytes were stimulated ex vivo with the native PSMA288-297 peptide and tested against ^51Cr-labeled human tumor cells (PSMA^+ A2^+ LnCap cells, or as negative control, LnCap cells coated with MHC class I-blocking antibody) at various E:T ratios.
HHD transgenic mice (n=4) were immunized with plasmid expressing the PSMA288-297 epitope by direct inoculation into the inguinal lymph nodes with 25 μg in 25 μl of PBS to each lymph node at day 0, 3, 14 and 17. This was followed by two peptide boosts (same amount) at day 28 and 31, with the analog I297V. One week after the boost, splenocytes were stimulated ex vivo with the native PSMA288-297 peptide and tested overnight against ^51Cr-labeled human tumor cells (Lncap, A2^+ PSMA^+; or 624.38 A2^+ PSMA^− or control 624.28 cells A2^− PSMA^−) at various E:T ratios.

[9] = biological target: T1, A0201 restricted MHC Class 1 molecules (Homo sapiens, UniProt P04439, D140Y/D185E/D98H/E176V/E277Q/G131W/G231S/I119V/I121R/I166T/I218V/N151K/N90K/P208A/P217A/Q86G/Q94H/R138H/R169H); assay: iTopia binding assay (% binding); conditions: compared with the native peptide
Excerpt: (§1) Avidin-coated microtiter plates containing class I monomer loaded with a so-called placeholder peptide were used to evaluate peptide binding, affinity and off-rate. […] Assay buffers, anti-MHC-FITC mAb and beta2-microglobulin and control peptides were also supplied with the kits.
This assay measures the ability of individual peptides to bind HLA molecules under standardized optimal binding conditions. Monomer-coated plates were first stripped, releasing the placeholder peptide and leaving only the MHC heavy chain bound to the plate. Test peptides were then introduced under optimal folding conditions, along with the anti-MHC-FITC mAb. […] The anti-MHC-FITC mAb binds preferentially to a refolded MHC complex. Therefore, the fluorescence intensity resulting from each peptide was related to the peptide's ability to form complex with MHC molecule. Each peptide's binding was evaluated relative to the positive control peptide provided in the kit, and the results were expressed “% binding”.

[10] = system: native peptide loaded splenocytes; assay: In vivo cytotoxicity against native PRAME peptide-loaded splenocytes (CFSE); parameters: species or system HHD transgenic mice; conditions: pCTLR2 prime, peptide boost; FIGS. 30-31
[11] = system: splenocytes; assay: Ex vivo IFN-gamma production after re-stimulation with wild-type NY-ESO-1157-165 (ELISA); type: in vivo, mice; conditions: 10 μM wild-type peptide, 3 and 6 days; FIG. 17
Excerpt: Supernatants were harvested and the concentration of IFN-γ measured by ELISA.

[12] = system: target cells coated with wild-type peptide; assay: In vivo cytotoxicity against wild-type NY-ESO-1 peptide-coated target cells; parameters: species or system HHD mice; conditions: plasmid entrain, peptide amplify; FIGS. 15-16
Procedure: These cells were then stained with CFSE^hi and CFSE^med fluorescence (4.0 μM or 1 μM, respectively, for 15 minutes) and intravenously co-injected into immunized mice with an equal number of control splenocytes stained with CFSE^lo fluorescence (0.4 μM). Eighteen hours later the specific elimination of target cells was measured by removing the spleens and PBMC from challenged animals and measuring CFSE fluorescence by flow cytometry. The relative depletion of the populations corresponding to peptide loaded splenocytes was calculated relative to the control (unloaded) population and expressed as % specific lysis.

[13] = biological target: T1, A0201 restricted MHC Class 1 molecules; assay: iTopia off-rate assay (T1/2); type: binding; conditions: compared with the respective native peptide
Procedure: as §1
The plates were then incubated on the allele-specific monomer plates at 37° C. The plates were measured at multiple time points (0, 0.5, 1, 1.5, 2, 4, 6 and 8 hrs) for relative fluorescence intensity. The time required for 50% of the peptide to dissociate from the MHC monomer is defined as the T1/2 value (hrs).
The binding and offrate (T1/2) was determined for six native epitopes and their analogs which were designed to enhance the immune response.

[14] = system: PRAME425-433-specific T cells; assay: Tetramer/CD8 co-staining of PRAME425-433-specific T cells; type: in vivo, HHD transgenic mice; conditions: versus boost with negative control peptide; FIG. 31
[15] = system: 624.38 cells; assay: Ex vivo cytotoxicity against human tumor cells after boost with tyrosinase analogs; type: in vivo; conditions: pSEM prime, peptide boost; FIG. 41
Procedure: HHD transgenic mice (n=4/group) were immunized (according to the general protocol in FIG. 40) with plasmid (pSEM) expressing the Tyrosinase369-377 epitope by direct inoculation into the inguinal lymph nodes of 25 μg of plasmid in 25 μl of PBS per lymph node at day 0, 3, 14 and 17. […] One week after the boost, splenocytes were stimulated ex vivo with the native Tyrosinase369-377 peptide and assayed against ^51Cr-labeled human tumor cells (624.38 cells) at various E:T ratios. […] Together with the preceding example, this observation illustrates the usefulness of complementing more stringent assays (in vivo cytotoxicity and tetramer staining) with more sensitive assays (ex vivo cytotoxicity after in vitro stimulation) to outline potentially useful analogs.

[16] = biological target: T2, HLA-A*0201 class I monomer of the iTopia Epitope Discovery System; assay: iTopia affinity assay
T2 construct: also called A0201 restricted MHC Class 1 molecules; MHC monomer

[17] = biological target: T2, HLA-A*0201 class I monomer of the …; assay: iTopia off-rate assay
[18] = biological target: T2, HLA-A*0201 class I monomer of the …; assay: iTopia affinity and off-rate assays

Molecule: CC[C@H](C)[C@H](NC(=O)[C@H](CCCCN)NC(=O)[C@H](CCC(=O)O)NC(=O)[C@H](CO)NC(=O)[C@@H](NC(=O)[C@@H](N)CCCCN)C(C)C)C(=O)N[C@@H](Cc1ccccc1)C(=O)N[C@@H](Cc1ccc(O)cc1)C(=O)N[C@H](C(=O)O)C(C)C [SSX2 41-49 (A42V)]
- cytotoxicity against human tumor cells expressing natural SSX-2 41-49 epitope [1]: increased cytotoxicity
- in vivo cytotoxicity (% specific lysis), in words [2]: increased activity
- response against target cells expressing the natural peptide [3]: higher response
- Cross-reactivity and fct avidity (native to analogs)* [4]: 0.03

Molecule: Ala substitution: PRAME425-433 analog with Ala at the PΩ anchor position (SLLQHLIGA; UniProt P78395 425-433, looked up, variant L433A)
- ED50 relative to native peptide [5]: more than 10 fold

Molecule: PSMA 288-297(I297V): PSMA288-297 analog with I297V substitution
- priming of immune response against native PSMA288-297 (IFN-γ ELISPOT), in words [6]: increased priming
- frequency of native epitope-specific T cells (ELISPOT) [7]: considerably higher
- cytotoxicity against LnCap human tumor cells [8]: effective in mediating cytotoxicity against LNCAP

Molecule: S425F: PRAME425-433 analog with Phe for the Ser at P1 (FLLQHLIGL) [Peptide S425F]
- percent binding, in words [9]: exceeded that range on the high side
- in vivo cytotoxicity against native epitope, in words [10]: capable of expanding the immunity against the native epitope

Molecule: SNvaLMWITQV (S[Nva]LMWITQV) [Nyeso-1 157-165 (L158Nva, C165V))]
- IFN-gamma production upon ex vivo re-stimulation with wild-type peptide [11]: large levels of IFN-gamma more rapidly
- in vivo cytotoxicity (% specific lysis), in words [12]: substantial, constant cytotoxicity
- stability of binding (half-time of dissociation), in words [13]: Significant increase in the stability

Molecule: T{Nva}LQHLIG{Nle} (T[Nva]LQHLIG[Nle]) [S425T L426Nva L433Nle]
- in vivo cytotoxicity against native epitope, in words [10]: capable of expanding the immunity against the native epitope
- expansion of T cells specific against the native epitope (tetramer staining) [14]: significantly higher

Molecule: YMDGTMSQV [Tyrosinase 369-377, reference compound]
- cytotoxicity against 624.38 cells [15]: robust cytotoxicity

Molecule: YVDGTMSQNva (YVDGTMSQ[Nva]) [M370V V377Nva]
- cytotoxicity against 624.38 cells [15]: robust cytotoxicity

Molecule: SLLQHLIG[Nva] [PRAME425-433 analog with Nva at PΩ]
- fold difference of ED50 against the native peptide [16]: ≤ 3 fold
- t1/2 [17]: 17.2 h

Molecule: F[Nva]LQHLIG[Nle] [PRAME425-433 analog with Phe at P1, Nva at P2 and Nle at PΩ]
- binding result [18]: binds

From patent publication US7511119B2, “PRAME peptide analogues” (MannKind Corporation, priority 2005, dated 2009)
